Assay results published in ChEMBL document CHEMBL5055676, “Novel methyllycaconitine analogues selective for the α4β2 over α7 nicotinic acetylcholine receptors” (Bioorg Med Chem, 2021).
Activity calls are given as the source filed them. No cut-off for these calls is given here.

Legend:
[1] = molecular target: T1, Neuronal acetylcholine receptor; alpha4/beta2 (Homo sapiens, UniProt P17787+P43681); test: Inhibition of human (alpha4)3(beta2)2 nAChR expressed in Xenopus laevis oocytes assessed as inhibition of acetylcholine-induced current response at 10 uM pretreated for 30 secs followed by co-application with acetylcholine measured at holding potential of -60 mV by two-electrode voltage-clamp method; type: cell-based; details: Oocyte, time 30.0 sec
[2] = molecular target: T1, Neuronal acetylcholine receptor; alpha4/beta2; test: Inhibition of human (alpha4)2(beta2)3 nAChR expressed in Xenopus laevis oocytes assessed as inhibition of acetylcholine-induced current response at 10 uM pretreated for 30 secs followed by co-application with acetylcholine measured at holding potential of -60 mV by two-electrode voltage-clamp method; type: cell-based; details: Oocyte, time 30.0 sec
[3] = molecular target: T1, Neuronal acetylcholine receptor; alpha4/beta2; test: Non-competitive antagonist activity at human (alpha4)3(beta2)2 nAChR expressed in Xenopus laevis oocytes decrease in acetylcholine-induced maximum current with non-significant change in Ach potency at IC50 pretreated for 30 secs followed by co-application with acetylcholine measured at holding potential of -60 mV by two-electrode voltage-clamp method; type: cell-based; details: Oocyte, time 30.0 sec
[4] = molecular target: T1, Neuronal acetylcholine receptor; alpha4/beta2; test: Inhibition of human (alpha4)3(beta2)2 nAChR expressed in Xenopus laevis oocytes assessed as inhibition of acetylcholine-induced current response in presence of 100 uM acetylcholine by two-electrode voltage-clamp method; type: cell-based; details: for logIC50: Oocyte
[5] = molecular target: T1, Neuronal acetylcholine receptor; alpha4/beta2; test: Inhibition of human (alpha4)2(beta2)3 nAChR expressed in Xenopus laevis oocytes assessed as inhibition of acetylcholine-induced current response in presence of 3 uM acetylcholine by two-electrode voltage-clamp method; type: cell-based; details: for logIC50: Oocyte
[6] = molecular target: Neuronal acetylcholine receptor subunit alpha-7 (Rattus norvegicus, UniProt Q05941); test: Inhibition of rat alpha7 nAChR expressed in Xenopus laevis oocytes assessed as inhibition of acetylcholine-elicited current response measured at holding potential of -60 mV by two-electrode voltage-clamp method; type: cell-based, Oocyte
[7] = molecular target: Neuronal acetylcholine receptor; alpha4/beta2 (Rattus norvegicus, UniProt P09483+P12390); test: Inhibition of rat alpha4beta2 nAChR expressed in Xenopus laevis oocytes assessed as inhibition of acetylcholine-elicited current response measured at holding potential of -60 mV by two-electrode voltage-clamp method; type: cell-based, Oocyte
Neuronal acetylcholine receptor; alpha4/beta2 (Rattus norvegicus, UniProt P09483+P12390), sequence (P09483 whole entry): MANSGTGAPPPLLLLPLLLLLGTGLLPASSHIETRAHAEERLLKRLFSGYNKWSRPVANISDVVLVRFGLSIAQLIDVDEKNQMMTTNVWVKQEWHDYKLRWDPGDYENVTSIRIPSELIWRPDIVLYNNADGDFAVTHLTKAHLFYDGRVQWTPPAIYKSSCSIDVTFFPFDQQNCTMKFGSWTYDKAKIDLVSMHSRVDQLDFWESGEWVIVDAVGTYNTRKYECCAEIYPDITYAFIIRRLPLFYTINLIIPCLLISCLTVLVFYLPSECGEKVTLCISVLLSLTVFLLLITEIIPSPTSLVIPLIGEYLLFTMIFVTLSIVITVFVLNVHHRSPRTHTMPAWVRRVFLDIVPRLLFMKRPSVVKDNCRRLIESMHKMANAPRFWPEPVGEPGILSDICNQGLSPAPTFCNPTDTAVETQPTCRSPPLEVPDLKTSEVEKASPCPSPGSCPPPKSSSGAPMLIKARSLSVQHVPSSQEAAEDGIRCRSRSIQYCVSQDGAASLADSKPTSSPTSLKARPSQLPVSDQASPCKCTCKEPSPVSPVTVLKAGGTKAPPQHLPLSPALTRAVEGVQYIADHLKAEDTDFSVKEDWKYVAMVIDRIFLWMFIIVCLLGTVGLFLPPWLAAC
Neuronal acetylcholine receptor; alpha4/beta2 (Rattus norvegicus, UniProt P09483+P12390), sequence (P12390 whole entry): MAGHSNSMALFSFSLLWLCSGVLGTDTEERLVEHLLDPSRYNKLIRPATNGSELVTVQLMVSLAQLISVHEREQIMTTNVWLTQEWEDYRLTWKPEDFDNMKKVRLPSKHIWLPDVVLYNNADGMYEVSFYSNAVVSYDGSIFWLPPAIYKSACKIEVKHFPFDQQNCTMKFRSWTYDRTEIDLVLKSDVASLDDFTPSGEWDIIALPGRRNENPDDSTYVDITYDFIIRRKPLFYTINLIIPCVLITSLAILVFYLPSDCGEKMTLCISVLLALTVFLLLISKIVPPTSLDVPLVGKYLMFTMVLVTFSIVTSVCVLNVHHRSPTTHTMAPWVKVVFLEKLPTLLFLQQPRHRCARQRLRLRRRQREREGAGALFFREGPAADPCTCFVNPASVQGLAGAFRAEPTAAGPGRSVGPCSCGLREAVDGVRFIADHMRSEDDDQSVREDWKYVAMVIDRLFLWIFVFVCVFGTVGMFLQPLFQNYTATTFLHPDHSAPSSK

T1 sequence (P17787 whole entry): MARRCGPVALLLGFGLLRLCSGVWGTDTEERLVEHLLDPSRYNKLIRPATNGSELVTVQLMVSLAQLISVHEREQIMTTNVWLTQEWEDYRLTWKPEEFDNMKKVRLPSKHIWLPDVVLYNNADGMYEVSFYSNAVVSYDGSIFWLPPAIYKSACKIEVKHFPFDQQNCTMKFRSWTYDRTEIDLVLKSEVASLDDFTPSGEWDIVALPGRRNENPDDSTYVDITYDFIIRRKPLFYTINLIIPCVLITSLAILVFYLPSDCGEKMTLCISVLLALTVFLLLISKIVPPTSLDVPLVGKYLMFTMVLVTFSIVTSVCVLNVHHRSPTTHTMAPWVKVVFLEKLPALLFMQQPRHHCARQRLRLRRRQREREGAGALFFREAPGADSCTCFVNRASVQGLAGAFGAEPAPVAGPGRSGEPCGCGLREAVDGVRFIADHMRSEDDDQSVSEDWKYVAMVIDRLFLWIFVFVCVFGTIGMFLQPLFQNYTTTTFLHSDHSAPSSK
T1 sequence (P43681 whole entry): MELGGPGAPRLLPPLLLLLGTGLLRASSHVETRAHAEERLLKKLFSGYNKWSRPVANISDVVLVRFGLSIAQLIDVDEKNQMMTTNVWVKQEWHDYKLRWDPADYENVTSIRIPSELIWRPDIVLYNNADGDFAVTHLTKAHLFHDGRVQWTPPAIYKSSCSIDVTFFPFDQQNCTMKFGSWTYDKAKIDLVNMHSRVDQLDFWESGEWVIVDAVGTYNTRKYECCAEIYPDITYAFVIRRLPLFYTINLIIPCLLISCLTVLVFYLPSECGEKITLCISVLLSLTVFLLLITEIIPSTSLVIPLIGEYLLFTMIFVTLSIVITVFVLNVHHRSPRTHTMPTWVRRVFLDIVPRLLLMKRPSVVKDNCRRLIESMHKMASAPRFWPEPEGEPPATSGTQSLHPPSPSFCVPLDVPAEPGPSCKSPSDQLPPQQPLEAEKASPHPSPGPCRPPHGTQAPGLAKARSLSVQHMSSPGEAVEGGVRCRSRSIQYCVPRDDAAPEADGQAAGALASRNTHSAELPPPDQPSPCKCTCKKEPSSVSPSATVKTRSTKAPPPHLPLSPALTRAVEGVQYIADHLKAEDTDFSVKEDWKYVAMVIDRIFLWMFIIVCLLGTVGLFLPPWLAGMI
Neuronal acetylcholine receptor subunit alpha-7, sequence (Q05941 whole entry): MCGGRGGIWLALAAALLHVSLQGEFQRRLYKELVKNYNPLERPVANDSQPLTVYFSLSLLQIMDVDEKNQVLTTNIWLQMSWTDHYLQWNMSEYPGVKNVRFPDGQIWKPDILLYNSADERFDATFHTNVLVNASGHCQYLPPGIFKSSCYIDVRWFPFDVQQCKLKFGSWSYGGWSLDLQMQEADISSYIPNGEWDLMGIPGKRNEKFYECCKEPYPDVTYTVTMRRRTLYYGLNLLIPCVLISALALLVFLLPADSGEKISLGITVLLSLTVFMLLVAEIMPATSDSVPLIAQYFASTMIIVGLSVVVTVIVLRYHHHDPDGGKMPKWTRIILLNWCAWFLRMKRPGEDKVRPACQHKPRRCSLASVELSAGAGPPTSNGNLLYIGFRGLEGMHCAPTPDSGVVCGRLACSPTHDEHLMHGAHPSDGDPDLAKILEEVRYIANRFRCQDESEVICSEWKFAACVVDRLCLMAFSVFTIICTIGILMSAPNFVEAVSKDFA

SMILES	inhibition [1]	inhibition [2]	other results
C=C1[C@@H]2CCC[C@@]1(COC(=O)c1ccccc1-c1cccc(NC(C)=O)c1)CN(CC)C2	Active		
C=C1[C@@H]2CCC[C@@]1(COC(=O)c1ccccc1-c1cncc(NC(C)=O)c1)CN(CC)C2	60%	Active	
C=C1[C@@H]2CCC[C@@]1(COC(=O)c1ccccc1-c1ccccc1)CN(CC)C2	Active		
C=C1[C@@H]2CCC[C@@]1(COC(=O)c1ccccc1-c1ccnc(NC(C)=O)c1)CN(CC)C2	60%	Active	
C=C1[C@@H]2CCC[C@@]1(COC(=O)c1ccccc1-c1ccncc1)CN(CC)C2	Active		
C=C1[C@@H]2CCC[C@@]1(COC(=O)c1ccccc1-c1ccccn1)CN(CC)C2	50%	Active	
CCN1C[C@]2(COC(=O)c3ccccc3N3C(=O)C[C@H](C)C3=O)CC[C@H](OC)[C@]34C1[C@@](O)([C@@H](OC)[C@H]23)[C@@]1(O)C[C@H](OC)[C@H]2C[C@@H]4[C@@H]1[C@H]2OC	95%	Active	inhibition [3]: Active; logIC50 [4]: -1.1; logIC50 [5]: -0.8
C=C1[C@@H]2CCC[C@@]1(COC(=O)c1ccccc1-c1cccc(NC(C)=O)n1)CN(CC)C2	80%	Active	inhibition [3]: Active; IC50 [4]: 4.9 µM; logIC50 [4]: 0.7; IC50 [5]: 27.3 µM; logIC50 [5]: 1.4
C=C1[C@@H]2CCC[C@@]1(COC(=O)c1ccccc1-c1ccc(NC(C)=O)cn1)CN(CC)C2	60%	Active	inhibition [3]: Active; IC50 [4]: 4.1 µM; logIC50 [4]: 0.6; IC50 [5]: 29.1 µM; logIC50 [5]: 1.5
C=C1[C@@H]2CCC[C@@]1(COC(=O)c1ccccc1N1C(=O)CC(C)C1=O)CN(CC)C2 (stereo partly specified)			IC50 [6]: 20.7 µM; IC50 [7]: 4.66 µM
C=C1[C@@H]2CCC[C@@]1(COC(=O)c1ccccc1-c1cccnc1)CN(CC)C2	Active		
C=C1[C@@H]2CCC[C@@]1(COC(=O)c1ccccc1-c1ccc(NC(C)=O)cc1)CN(CC)C2	Active		
C=C1[C@@H]2CCC[C@@]1(COC(=O)c1ccccc1-c1cc(NC(C)=O)ccn1)CN(CC)C2	80%	Active	inhibition [3]: Active; IC50 [4]: 3.9 µM; logIC50 [4]: 0.6; IC50 [5]: 15 µM; logIC50 [5]: 1.2
C=C1[C@@H]2CCC[C@@]1(COC(=O)c1ccccc1-c1ccc(NC(C)=O)nc1)CN(CC)C2	60%	Active	
